Experimental data from US10421761B2, “Compounds for kinase modulation, and indications therefor” (Plexxikon Inc., priority 2013, dated 2019).

Tested on: B9 cells
Conditions: B9 cells

CCCS(=O)(=O)Nc1ccc(F)c(C(=O)c2c[nH]c3ncc(-c4ccc(Cl)cc4)cc23)c1F [vemurafenib]
probe 1455104_at response, Mxd1 (MAX dimerization protein 1) (Repl. 1): 2.60
probe 1455241_at response, BC037703 (cDNA sequence BC037703) (Repl. 1): 0.44
probe 1455299_at response, Vgll3 (vestigial like 3 (Drosophila)) (Repl. 1): 0.50
probe 1455981_at response, Gm11263 /// Gm12242 /// Gm13654 /// Gm14138 /// Gm16406 /// Gm4796 /// Gm6476 /// Gm9143 /// LOC100043734 /// LOC236932 /// LOC623245 /// LOC639593 /// Rps6 (Repl. 1): 0.41
probe 1456150_at response, Jhdm1d (jumonji C domain-containing histone demethylase 1 homolog D (S. cerevisiae)) (Repl. 1): 1.99
probe 1456174_x_at response, Ndrg1 (N-myc downstream regulated gene 1) (Repl. 1): 1.92
probe 1456248_at response, Lce3f /// LOC630971 (late cornified envelope 3F /// hypothetical protein LOC630971) (Repl. 1): 2.26
probe 1456284_at response, Tmem171 (transmembrane protein 171) (Repl. 1): 2.10
probe 1456321_at response, Nipal1 (NIPA-like domain containing 1) (Repl. 1): 3.42
probe 1456725_x_at response, Ezr (ezrin) (Repl. 1): 0.48
probe 1456874_at response, Flrt2 (fibronectin leucine rich transmembrane protein 2) (Repl. 1): 0.52
probe 1457042_at response, AI256396 (EST AI256396) (Repl. 1): 0.48
probe 1457568_at response, Hnrnpd (heterogeneous nuclear ribonucleoprotein D) (Repl. 1): 0.44
probe 1457666_s_at response, Ifi202b (interferon activated gene 202B) (Repl. 1): 3.60
probe 1460220_a_at response, Csf1 (colony stimulating factor 1 (macrophage)) (Repl. 1): 0.40
probe 1460302_at response, Thbs1 (thrombospondin 1) (Repl. 1): 0.49
probe 1460472_at response, Cdk3 (cyclin-dependent kinase 3) (Repl. 1): 1.91
probe 1460521_a_at response, Obfc2a (oligonucleotide/oligosaccharide-binding fold containing 2A) (Repl. 1): 3.03
probe 1460695_a_at response, 2010111I01Rik (RIKEN cDNA 2010111I01 gene) (Repl. 1): 0.51
probe 1415828_a_at response, Serp1 (stress-associated endoplasmic reticulum protein 1) (Repl. 2): 1.88
probe 1415936_at response, Bcar3 (breast cancer anti-estrogen resistance 3) (Repl. 2): 2.16
probe 1416129_at response, Errfi1 (ERBB receptor feedback inhibitor 1) (Repl. 2): 3.11
probe 1416246_a_at response, Coro1a (coronin, actin binding protein 1A) (Repl. 2): 2.19
probe 1416325_at response, Crisp 1 (cysteine-rich secretory protein 1) (Repl. 2): 4.39
probe 1416401_at response, Cd82 (CD82 antigen) (Repl. 2): 2.64
probe 1416488_at response, Ccng2 (cyclin G2) (Repl. 2): 2.31
probe 1416527_at response, Rab32 (RAB32, member RAS oncogene family) (Repl. 2): 0.48
probe 1417065_at response, Egr1 (early growth response 1) (Repl. 2): 4.50
probe 1417130_s_at response, Angptl4 (angiopoietin-like 4) (Repl. 2): 2.79
probe 1417328_at response, Ercc1 (excision repair cross-complementing rodent repair deficiency, complementation group 1) (Repl. 2): 2.01
probe 1417488_at response, Fosl1 (fos-like antigen 1) (Repl. 2): 2.05
probe 1417494_a_at response, Cp (ceruloplasmin) (Repl. 2): 0.43
probe 1417495_x_at response, Cp (ceruloplasmin) (Repl. 2): 0.51
probe 1417533_a_at response, Itgb5 (integrin beta 5) (Repl. 2): 0.51
probe 1417625_s_at response, Cxcr7 (chemokine (C-X-C motif) receptor 7) (Repl. 2): 2.03
probe 1417677_at response, Opn3 (opsin 3) (Repl. 2): 2.39
probe 1417812_a_at response, Lamb3 (laminin, beta 3) (Repl. 2): 2.38
probe 1417837_at response, Phlda2 (pleckstrin homology-like domain, family A, member 2) (Repl. 2): 2.11
probe 1417902_at response, Slc19a2 (solute carrier family 19 (thiamine transporter), member 2) (Repl. 2): 2.07
probe 1417962_s_at response, Ghr (growth hormone receptor) (Repl. 2): 2.14
probe 1418349_at response, Hbegf (heparin-binding EGF-like growth factor) (Repl. 2): 2.70
probe 1418350_at response, Hbegf (heparin-binding EGF-like growth factor) (Repl. 2): 2.46
probe 1418538_at response, Kdelr3 (KDEL (Lys-Asp-Glu-Leu) endoplasmic reticulum protein retention receptor 3) (Repl. 2): 2.02
probe 1418539_a_at response, Ptpre (protein tyrosine phosphatase, receptor type, E) (Repl. 2): 1.89
probe 1419149_at response, Serpine1 (serine (or cysteine) peptidase inhibitor, clade E, member 1) (Repl. 2): 1.99
probe 1419188_s_at response, Ccl27a /// Gm13306 (chemokine (C-C motif) ligand 27A /// predicted gene 13306) (Repl. 2): 2.36
probe 1419317_x_at response, Lce3c (late cornified envelope 3C) (Repl. 2): 2.58
probe 1419322_at response, Fgd6 (FYVE, RhoGEF and PH domain containing 6) (Repl. 2): 2.45
probe 1419529_at response, Il23a (interleukin 23, alpha subunit p19) (Repl. 2): 2.53
probe 1419671_a_at response, Il17rc (interleukin 17 receptor C) (Repl. 2): 0.45
probe 1419722_at response, Klk8 (kallikrein related-peptidase 8) (Repl. 2): 1.94
probe 1419816_s_at response, Errfi1 (ERBB receptor feedback inhibitor 1) (Repl. 2): 3.39
probe 1420352_at response, Prss22 (protease, serine, 22) (Repl. 2): 3.13
probe 1420380_at response, Cc12 (chemokine (C-C motif) ligand 2) (Repl. 2): 0.41
probe 1420407_at response, Ltb4r1 (leukotriene B4 receptor 1) (Repl. 2): 2.24
probe 1420450_at response, Mmp10 (matrix metallopeptidase 10) (Repl. 2): 3.93
probe 1420537_at response, Kctd4 (potassium channel tetramerisation domain containing 4) (Repl. 2): 2.58
probe 1420760_s_at response, Ndrg1 (N-myc downstream regulated gene 1) (Repl. 2): 2.04
probe 1420913_at response, Slco2a1 (solute carrier organic anion transporter family, member 2a1) (Repl. 2): 1.96
probe 1420955_at response, Vsnl1 (visinin-like 1) (Repl. 2): 0.47
probe 1421134_at response, Areg (amphiregulin) (Repl. 2): 4.16
probe 1421269_at response, Ugcg (UDP-glucose ceramide glucosyltransferase) (Repl. 2): 2.16
probe 1421279_at response, Lamc2 (laminin, gamma 2) (Repl. 2): 2.11
probe 1421403_at response, Pi15 (peptidase inhibitor 15) (Repl. 2): 1.96
probe 1421551_s_at response, Ifi202b (interferon activated gene 202B) (Repl. 2): 3.42
probe 1421668_x_at response, Speer3 (spermatogenesis associated glutamate (E)-rich protein 3) (Repl. 2): 2.60
probe 1421679_a_at response, Cdkn1a (cyclin-dependent kinase inhibitor 1A (P21)) (Repl. 2): 4.13
probe 1421888_x_at response, Aplp2 (amyloid beta (A4) precursor-like protein 2) (Repl. 2): 0.63
probe 1421943_at response, Tgfa (transforming growth factor alpha) (Repl. 2): 1.92
probe 1422028_a_at response, Ets1 (E26 avian leukemia oncogene 1, 5′ domain) (Repl. 2): 1.91
probe 1422101_at response, Tnfrsf23 (tumor necrosis factor receptor superfamily, member 23) (Repl. 2): 1.93
probe 1422138_at response, Plau (plasminogen activator, urokinase) (Repl. 2): 2.19
probe 1422139_at response, Plau (plasminogen activator, urokinase) (Repl. 2): 2.82
probe 1422222_at response, Ivl (involucrin) (Repl. 2): 2.27
probe 1422240_s_at response, Sprr2h (small proline-rich protein 2H) (Repl. 2): 1.98
probe 1422273_at response, Mmp1b (matrix metallopeptidase 1b (interstitial collagenase)) (Repl. 2): 3.17
probe 1422324_a_at response, Pthlh (parathyroid hormone-like peptide) (Repl. 2): 2.28
probe 1422537_a_at response, Id2 (inhibitor of DNA binding 2) (Repl. 2): 0.49
probe 1422771_at response, Smad6 (MAD homolog 6 (Drosophila)) (Repl. 2): 0.47
probe 1422924_at response, Tnfsf9 (tumor necrosis factor (ligand) superfamily, member 9) (Repl. 2): 1.94
probe 1423017_a_at response, Il1rn (interleukin 1 receptor antagonist) (Repl. 2): 2.03
probe 1423543_at response, Swap70 (SWA-70 protein) (Repl. 2): 1.95
probe 1423597_at response, Atp8a1 (ATPase, aminophospholipid transporter (APLT), class I, type 8A, member 1) (Repl. 2): 1.88
probe 1423635_at response, Bmp2 (bone morphogenetic protein 2) (Repl. 2): 2.23
probe 1423690_s_at response, Gpsm1 (G-protein signalling modulator 1 (AGS3-like, C. elegans)) (Repl. 2): 3.20
probe 1423933_a_at response, 1600029D21Rik (RIKEN cDNA 1600029D21 gene) (Repl. 2): 2.01
probe 1424022_at response, Osgin1 (oxidative stress induced growth inhibitor 1) (Repl. 2): 1.92
probe 1424090_at response, Sdcbp2 (syndecan binding protein (syntenin) 2) (Repl. 2): 4.46
probe 1424306_at response, Elovl4 (elongation of very long chain fatty acids (FEN1/Elo2, SUR4/Elo3, yeast)-like 4) (Repl. 2): 2.35
probe 1424383_at response, Tmem51 (transmembrane protein 51) (Repl. 2): 2.69
probe 1424471_at response, Rapgef3 (Rap guanine nucleotide exchange factor (GEF) 3) (Repl. 2): 1.89
probe 1424638_at response, Cdkn1a (cyclin-dependent kinase inhibitor 1A (P21)) (Repl. 2): 2.67
probe 1424783_a_at response, Ugt1a1 /// Ugt1a10 /// Ugt1a2 /// Ugt1a5 /// Ugt1a6a /// Ugt1a6b /// Ugt1aTc /// Ugt1a9 (UDP glucuronosyltransferase 1 family) (Repl. 2): 0.43
probe 1425452_s_at response, Fam84a (family with sequence similarity 84, member A) (Repl. 2): 2.53
probe 1425660_at response, Btbd3 (BTB (POZ) domain containing 3) (Repl. 2): 1.92
probe 1426037_a_at response, Rgs16 (regulator of G-protein signaling 16) (Repl. 2): 2.93
probe 1426181_a_at response, I124 (interleukin 24) (Repl. 2): 4.76
probe 1426260_a_at response, Ugt1a1 /// Ugt1a10 /// Ugt1a2 /// Ugt1a5 /// Ugt1a6a /// Ugt1a6b /// Ugt1aTc /// Ugt1a9 (UDP glucuronosyltransferase 1 family) (Repl. 2): 0.45
probe 1426300_at response, Alcam (activated leukocyte cell adhesion molecule) (Repl. 2): 2.44
probe 1426306_a_at response, LOC100046560 /// Maged2 (similar to melanoma antigen family D, 2 /// melanoma antigen, family D, 2) (Repl. 2): 1.87
probe 1426708_at response, Antxr2 (anthrax toxin receptor 2) (Repl. 2): 2.15
probe 1426806_at response, Obfc2a (oligonucleotide/oligosaccharide-binding fold containing 2A) (Repl. 2): 2.02
probe 1426848_at response, LOC100047481 /// Sec24b (similar to SEC24 related gene family, member B (S. cerevisiae) /// Sec24 related gene family, member B (S. cerevisiae)) (Repl. 2): 0.75
probe 1426972_at response, Sec24d (Sec24 related gene family, member D (S. cerevisiae)) (Repl. 2): 2.26
probe 1427278_at response, Clip4 (CAP-GLY domain containing linker protein family, member 4) (Repl. 2): 2.03
probe 1427364_a_at response, Odc1 (ornithine decarboxylase, structural 1) (Repl. 2): 2.62
probe 1427512_a_at response, Lama3 (laminin, alpha 3) (Repl. 2): 2.47
probe 1427527_a_at response, Pthlh (parathyroid hormone-like peptide) (Repl. 2): 2.37
probe 1427885_at response, Pold4 (polymerase (DNA-directed), delta 4) (Repl. 2): 2.27
probe 1428114_at response, Slc14a1 (solute carrier family 14 (urea transporter), member 1) (Repl. 2): 2.47
probe 1428195_at response, Ahcyl2 (S-adenosylhomocysteine hydrolase-like 2) (Repl. 2): 2.06
probe 1428228_at response, Pgm3 (phosphoglucomutase 3) (Repl. 2): 2.13
probe 1428419_at response, 5430411K18Rik (RIKEN cDNA 5430411K18 gene) (Repl. 2): 2.28
probe 1428851_at response, 1300014I06Rik (RIKEN cDNA 1300014I06 gene) (Repl. 2): 2.01
probe 1429700_at response, 3110040M04Rik (RIKEN cDNA 3110040M04 gene) (Repl. 2): 2.47
probe 1429844_at response, 2310043J07Rik (RIKEN cDNA 2310043J07 gene) (Repl. 2): 0.53
probe 1430010_at response, Ncapd2 (non-SMC condensin I complex, subunit D2) (Repl. 2): 0.49
probe 1430567_at response, Spink5 (serine peptidase inhibitor, Kazal type 5) (Repl. 2): 0.53
